This note sets out measurements from ChEMBL document CHEMBL2034942, “Trigoxyphins H and I: two new daphnane diterpenoids from Trigonostemon xyphophylloides” (Bioorg Med Chem Lett, 2012).

Structures are written as SMILES.

The IC50 is the concentration at which inhibition is half-maximal. Read a low IC50 as inhibition by little substance.

The test system of one assay is Bel-7402. As to the kind of experiment: Cytotoxicity against human Bel7402 cells after 48 hrs by MTT assay. Format: functional, cell-based. The note with it: Bel-7402, 48 h. In general terms: Formazan colour is commonly taken as a measure of viable cells.
Assay [1] can be described thus: Cytotoxicity against human SPC-A1 cells after 48 hrs by MTT assay. The note with it: SPCA1, 48 h. Type of assay: functional, cell-based.

Regarding `C=C(C)[C@@]12OC3(c4ccccc4)O[C@@H]1[C@@H]1[C@@H]4O[C@]4(C)[C@@H](O)[C@@H]4C(=O)C(C)=C[C@@H]4[C@@]1(O3)[C@H](C)[C@@H]2OC(=O)c1ccccc1` (relative stereo), the results for the IC50 (in the assay with Bel-7402; in assay [1]) were 16.1 µM and 37.3 µM, respectively.

In the case of `C=C(C)[C@@]12OC3(c4ccccc4)O[C@@H]1[C@@H]1[C@H](OC(C)=O)[C@@](C)(OC(=O)c4ccccc4)[C@@H](OC(C)=O)[C@@]4(O)[C@@H](C[C@H](C)[C@@H]4OC(C)=O)[C@@]1(O3)[C@H](C)[C@@H]2OC(C)=O` [TRIGOXYPHIN I], the figures for the IC50 (in the assay with Bel-7402; in assay [1]) were 8.73 µM and 11.1 µM, respectively.
